In PubChem BioAssay AID1259407 (Chemical Carcinogenesis Research Information System (CCRIS), 2018):
The source made the active and inactive calls. The rule behind the calls is not given here.

Tested on: CCRIS mutagenicity, Ames/micronucleus/aberration tests
Assay: CCRIS mutagenicity studies

Measured: mutagenic call

COc1ccc(O)cc1
inactive: Test System: AMES SALMONELLA TYPHIMURIUM, Strain/Indicator: TA97, Metabolic Activation: NONE, Method: STANDARD PLATE inactive; negative | Test System: AMES SALMONELLA TYPHIMURIUM, Strain/Indicator: TA97, Metabolic Activation: S-9, Method: STANDARD PLATE inactive; negative | Test System: AMES SALMONELLA TYPHIMURIUM, Strain/Indicator: TA98, Metabolic Activation: HAMSTER, LIVER, S-9, AROCLOR 1254, Method: PREINCUBATION inactive; negative | Test System: AMES SALMONELLA TYPHIMURIUM, Strain/Indicator: TA98, Metabolic Activation: NONE, Method: PREINCUBATION inactive; negative | Test System: AMES SALMONELLA TYPHIMURIUM, Strain/Indicator: TA98, Metabolic Activation: NONE, Method: STANDARD PLATE inactive; negative | Test System: AMES SALMONELLA TYPHIMURIUM, Strain/Indicator: TA98, Metabolic Activation: RAT, LIVER, S-9, AROCLOR 1254, Method: PREINCUBATION inactive; negative | Test System: AMES SALMONELLA TYPHIMURIUM, Strain/Indicator: TA98, Metabolic Activation: S-9, Method: STANDARD PLATE inactive; negative | Test System: AMES SALMONELLA TYPHIMURIUM, Strain/Indicator: TA100, Metabolic Activation: HAMSTER, LIVER, S-9, AROCLOR 1254, Method: PREINCUBATION inactive; negative | Test System: AMES SALMONELLA TYPHIMURIUM, Strain/Indicator: TA100, Metabolic Activation: NONE, Method: PREINCUBATION inactive; negative | Test System: AMES SALMONELLA TYPHIMURIUM, Strain/Indicator: TA100, Metabolic Activation: NONE, Method: STANDARD PLATE inactive; negative | Test System: AMES SALMONELLA TYPHIMURIUM, Strain/Indicator: TA100, Metabolic Activation: RAT, LIVER, S-9, AROCLOR 1254, Method: PREINCUBATION inactive; negative | Test System: AMES SALMONELLA TYPHIMURIUM, Strain/Indicator: TA100, Metabolic Activation: S-9, Method: STANDARD PLATE inactive; negative | Test System: AMES SALMONELLA TYPHIMURIUM, Strain/Indicator: TA102, Metabolic Activation: NONE, Method: STANDARD PLATE inactive; negative | Test System: AMES SALMONELLA TYPHIMURIUM, Strain/Indicator: TA102, Metabolic Activation: S-9, Method: STANDARD PLATE inactive; negative | Test System: AMES SALMONELLA TYPHIMURIUM, Strain/Indicator: TA1535, Metabolic Activation: HAMSTER, LIVER, S-9, AROCLOR 1254, Method: PREINCUBATION inactive; negative | Test System: AMES SALMONELLA TYPHIMURIUM, Strain/Indicator: TA1535, Metabolic Activation: NONE, Method: PREINCUBATION inactive; negative | Test System: AMES SALMONELLA TYPHIMURIUM, Strain/Indicator: TA1535, Metabolic Activation: RAT, LIVER, S-9, AROCLOR 1254, Method: PREINCUBATION inactive; negative | Test System: AMES SALMONELLA TYPHIMURIUM, Strain/Indicator: TA1537, Metabolic Activation: HAMSTER, LIVER, S-9, AROCLOR 1254, Method: PREINCUBATION inactive; negative | Test System: AMES SALMONELLA TYPHIMURIUM, Strain/Indicator: TA1537, Metabolic Activation: NONE, Method: PREINCUBATION inactive; negative | Test System: AMES SALMONELLA TYPHIMURIUM, Strain/Indicator: TA1537, Metabolic Activation: RAT, LIVER, S-9, AROCLOR 1254, Method: PREINCUBATION inactive; negative | Test System: E.COLI, Strain/Indicator: WP2 (PKM101), Metabolic Activation: NONE, Method: STANDARD PLATE inactive; negative | Test System: E.COLI, Strain/Indicator: WP2 (PKM101), Metabolic Activation: S-9, Method: STANDARD PLATE inactive; negative
